Laboratory results: patent US9708314B2, “Heterocyclic amide compound” (NISSAN CHEMICAL INDUSTRIES, LTD., priority 2013, dated 2017)

Legend:
Format in all cases: in vivo
Scirpus juncoides [1] = assay: Test Example 2: herbicidal activity, application during weed generation in submerged conditions; settings: Eighteenth Table; application herbicide amount 320 g/ha
Outline: (§1)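 Seeds were sown together in alluvial soil kept under 4 cm of water and grown at 25 °C to 30 °C. Once plants reached the one- to two-leaf stage, the diluted emulsion was applied to the water surface at a predetermined g/ha amount, and effects were rated 0–5 after three weeks.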

[2] = system: Echinochloa oryzacola Vasing.; assay: as above; settings: Eighteenth Table; application herbicide amount 320 g/ha
Outline: as §1

Monochoria vaginalis [3] = assay: as above; settings: Eighteenth Table; application herbicide amount 320 g/ha
Outline: as §1

Scirpus juncoides [4] = assay: Test Example 1: herbicidal activity, application before weed generation in submerged conditions; settings: Application herbicide amount 320 g/ha; Seventeenth Table
Outline: (§2)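 Water-diluted emulsion formulation is applied onto flood water (4 cm deep) covering alluvial soil on the day weed seeds are sown, after transplanting 2.5 leaf stage rice. Rates are expressed per hectare. Injury or control is graded 0–5 three weeks later.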

[5] = system: Echinochloa oryzacola Vasing.; assay: as above; settings: Application herbicide amount 320 g/ha; Seventeenth Table
Outline: as §2

Monochoria vaginalis [6] = assay: as above; settings: Application herbicide amount 320 g/ha; Seventeenth Table
Outline: as §2

Cyperus difformis = assay: Test Example 3: herbicidal effect by application to foliage (Wagner pot, water depth 0.1-0.5 cm); settings: Nineteenth Table; application to foliage; application herbicide amount 320 g/ha
Outline: (§3)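 Post-emergence foliar application at a stated g/ha rate to plants grown 14 days from seed in alluvial soil, greenhouse 25–30 °C. Visual score after 3 weeks: 0 (≤5% effect) through 5 (≥90%).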

[7] = system: Echinochloa crus-galli var. crus-galli; assay: as above; settings: Nineteenth Table; application to foliage; application herbicide amount 320 g/ha
Outline: as §3

Leptochloa chinensis = assay: as above; settings: Nineteenth Table; application to foliage; application herbicide amount 320 g/ha
Outline: as §3

[8] = system: directly sowed Oryza sativa; assay: Test Example 3: effect on crop by application to foliage (Wagner pot, water depth 0.1-0.5 cm); settings: Nineteenth Table; application to foliage; application herbicide amount 320 g/ha
Outline: as §3

SMILES	B (Scirpus juncoides) herbicidal ratio grade (Scirpus juncoides [1])	A (Echinochloa oryzicola Vasing.) herbicidal ratio grade [2]	C (Monochoria vaginalis) herbicidal ratio grade (Monochoria vaginalis [3])	B: Scirpus juncoides (herbicidal effect grade) (Scirpus juncoides [4])	A: Echinochloa oryzicola Vasing. (herbicidal effect grade) [5]	C: Monochoria vaginalis (herbicidal effect grade) (Monochoria vaginalis [6])	E (herbicidal effect grade) (Cyperus difformis)	H (herbicidal effect grade) [7]	D (herbicidal effect grade) (Leptochloa chinensis)	b (effect on crop grade) [8]
O=C(Nc1nnco1)c1ccc(C(F)(F)F)n2c(N3CCCC3)nnc12 [1-139]	3 (Herbicidal ratio of 40% or more and less than 70%)	4 (Herbicidal ratio of 70% or more and less than 90%)	3 (Herbicidal ratio of 40% or more and less than 70%)	4 (Herbicidal ratio of 70% or more and less than 90%)	5 (Herbicidal ratio of 90% or more (almost completely withered))	3 (Herbicidal ratio of 40% or more and less than 70%)	5 (Herbicidal ratio of 90% or more (almost completely withered))	4 (Herbicidal ratio of 70% or more and less than 90%)	5 (Herbicidal ratio of 90% or more (almost completely withered))	1 (Herbicidal ratio of 5% or more and less than 20%)
Cn1nnnc1NC(=O)c1ccc(C(F)(F)F)n2c(C3CC3)nnc12 [2-005]	3 (Herbicidal ratio of 40% or more and less than 70%)	5 (Herbicidal ratio of 90% or more (almost completely withered))	4 (Herbicidal ratio of 70% or more and less than 90%)	5 (Herbicidal ratio of 90% or more (almost completely withered))	5 (Herbicidal ratio of 90% or more (almost completely withered))	5 (Herbicidal ratio of 90% or more (almost completely withered))	4 (Herbicidal ratio of 70% or more and less than 90%)	5 (Herbicidal ratio of 90% or more (almost completely withered))	5 (Herbicidal ratio of 90% or more (almost completely withered))	2 (Herbicidal ratio of 20% or more and less than 40%)
CCC(CC)c1nnc2c(C(=O)Nc3nnnn3C)ccc(C(F)(F)F)n12 [2-006]	5 (Herbicidal ratio of 90% or more (almost completely withered))	5 (Herbicidal ratio of 90% or more (almost completely withered))	5 (Herbicidal ratio of 90% or more (almost completely withered))	5 (Herbicidal ratio of 90% or more (almost completely withered))	5 (Herbicidal ratio of 90% or more (almost completely withered))	5 (Herbicidal ratio of 90% or more (almost completely withered))	5 (Herbicidal ratio of 90% or more (almost completely withered))	5 (Herbicidal ratio of 90% or more (almost completely withered))	5 (Herbicidal ratio of 90% or more (almost completely withered))	5 (Herbicidal ratio of 90% or more (almost completely withered))
Cn1nnnc1NC(=O)c1ccc(C(F)(F)F)n2c(-c3ccccc3)nnc12 [2-007]	4 (Herbicidal ratio of 70% or more and less than 90%)	4 (Herbicidal ratio of 70% or more and less than 90%)	4 (Herbicidal ratio of 70% or more and less than 90%)	5 (Herbicidal ratio of 90% or more (almost completely withered))	5 (Herbicidal ratio of 90% or more (almost completely withered))	5 (Herbicidal ratio of 90% or more (almost completely withered))	5 (Herbicidal ratio of 90% or more (almost completely withered))	5 (Herbicidal ratio of 90% or more (almost completely withered))	5 (Herbicidal ratio of 90% or more (almost completely withered))	4 (Herbicidal ratio of 70% or more and less than 90%)
Cn1nnnc1NC(=O)c1ccc(C(F)(F)F)n2c(Cl)nnc12 [2-008]	2 (Herbicidal ratio of 20% or more and less than 40%)	3 (Herbicidal ratio of 40% or more and less than 70%)	3 (Herbicidal ratio of 40% or more and less than 70%)	4 (Herbicidal ratio of 70% or more and less than 90%)	4 (Herbicidal ratio of 70% or more and less than 90%)	4 (Herbicidal ratio of 70% or more and less than 90%)	4 (Herbicidal ratio of 70% or more and less than 90%)	4 (Herbicidal ratio of 70% or more and less than 90%)	5 (Herbicidal ratio of 90% or more (almost completely withered))	0 (Herbicidal ratio of 5% or less (almost no effect))
Cn1nnnc1NC(=O)c1ccc(C(F)(F)F)n2c(Br)nnc12 [2-009]	2 (Herbicidal ratio of 20% or more and less than 40%)	3 (Herbicidal ratio of 40% or more and less than 70%)	3 (Herbicidal ratio of 40% or more and less than 70%)	3 (Herbicidal ratio of 40% or more and less than 70%)	3 (Herbicidal ratio of 40% or more and less than 70%)	4 (Herbicidal ratio of 70% or more and less than 90%)	3 (Herbicidal ratio of 40% or more and less than 70%)	5 (Herbicidal ratio of 90% or more (almost completely withered))	4 (Herbicidal ratio of 70% or more and less than 90%)	4 (Herbicidal ratio of 70% or more and less than 90%)
COCc1nnc2c(C(=O)Nc3nnnn3C)ccc(C(F)(F)F)n12 [2-010, 3-(Methoxymethyl)-N-(1-methyl-1H-tetrazol-5-yl)-5-(trifluoromethyl)-[1,2,4]triazol o[4,3-a]pyridine-8-carboxamide]	4 (Herbicidal ratio of 70% or more and less than 90%)	5 (Herbicidal ratio of 90% or more (almost completely withered))	4 (Herbicidal ratio of 70% or more and less than 90%)	5 (Herbicidal ratio of 90% or more (almost completely withered))	5 (Herbicidal ratio of 90% or more (almost completely withered))	4 (Herbicidal ratio of 70% or more and less than 90%)	5 (Herbicidal ratio of 90% or more (almost completely withered))	5 (Herbicidal ratio of 90% or more (almost completely withered))	5 (Herbicidal ratio of 90% or more (almost completely withered))	5 (Herbicidal ratio of 90% or more (almost completely withered))
COc1ccc(-c2nnc3c(C(=O)Nc4nnnn4C)ccc(C(F)(F)F)n23)cc1 [2-011]	3 (Herbicidal ratio of 40% or more and less than 70%)	4 (Herbicidal ratio of 70% or more and less than 90%)	4 (Herbicidal ratio of 70% or more and less than 90%)	5 (Herbicidal ratio of 90% or more (almost completely withered))	5 (Herbicidal ratio of 90% or more (almost completely withered))	5 (Herbicidal ratio of 90% or more (almost completely withered))	5 (Herbicidal ratio of 90% or more (almost completely withered))	5 (Herbicidal ratio of 90% or more (almost completely withered))	5 (Herbicidal ratio of 90% or more (almost completely withered))	5 (Herbicidal ratio of 90% or more (almost completely withered))
Cn1nnnc1NC(=O)c1ccc(C(F)(F)F)n2c(-c3ccc(Cl)cc3)nnc12 [2-012]	5 (Herbicidal ratio of 90% or more (almost completely withered))	4 (Herbicidal ratio of 70% or more and less than 90%)	5 (Herbicidal ratio of 90% or more (almost completely withered))	4 (Herbicidal ratio of 70% or more and less than 90%)	5 (Herbicidal ratio of 90% or more (almost completely withered))	3 (Herbicidal ratio of 40% or more and less than 70%)	5 (Herbicidal ratio of 90% or more (almost completely withered))	4 (Herbicidal ratio of 70% or more and less than 90%)	5 (Herbicidal ratio of 90% or more (almost completely withered))	2 (Herbicidal ratio of 20% or more and less than 40%)
